In PMC12281475, “Mediator Kinase Inhibitor Selectivity and Activity in Colorectal Cancer” (ACS Chemical Biology, 2025):

Experiments:
Format in all cases: biochemical
CDK1_CycA2 = target: T1, CDK1_CycA2 (Homo sapiens, UniProt P06493); test: Radiometric protein kinase assay (33PanQinase), CDK1_CycA2
T1 construct: purchased Reaction Biology

CDK1_CycB1 = target: T2, CDK1_CycB1 (Homo sapiens, UniProt P06493); test: Radiometric protein kinase assay (33PanQinase), CDK1_CycB1
T2 construct: purchased Reaction Biology

CDK1_CycE1 = target: T3, CDK1_CycE1 (Homo sapiens, UniProt P06493); test: Radiometric protein kinase assay (33PanQinase), CDK1_CycE1
T3 construct: purchased Reaction Biology

CDK10_CycQ = CDK10_CycQ (Homo sapiens, UniProt Q15131); test: Radiometric protein kinase assay (33PanQinase), CDK10_CycQ; settings: slope of the IC50 fit
CDK11B 357-795_CycK = CDK11B 357-795_CycK (Homo sapiens, UniProt P21127); test: Radiometric protein kinase assay (33PanQinase), CDK11B 357-795_CycK; settings: slope of the IC50 fit
CDK12_CycK = target: T4, CDK12_CycK (Homo sapiens, UniProt Q9NYV4); test: Radiometric protein kinase assay (33PanQinase), CDK12_CycK
T4 construct: purchased Reaction Biology

CDK13_CycK = target: T5, CDK13_CycK (Homo sapiens, UniProt Q14004); test: Radiometric protein kinase assay (33PanQinase), CDK13_CycK
T5 construct: purchased Reaction Biology

CDK14_CycY = CDK14_CycY (Homo sapiens, UniProt O94921); test: Radiometric protein kinase assay (33PanQinase), CDK14_CycY; settings: slope of the IC50 fit
CDK15_CycA2 = target: T6, CDK15_CycA2 (Homo sapiens, UniProt Q96Q40); test: Radiometric protein kinase assay (33PanQinase), CDK15_CycA2
T6 construct: purchased Reaction Biology

CDK16_CycY = target: T7, CDK16_CycY (Homo sapiens, UniProt Q00536); test: Radiometric protein kinase assay (33PanQinase), CDK16_CycY; settings: slope of the IC50 fit
T7 construct: purchased Reaction Biology

CDK17_p35NCK = CDK17_p35NCK (Homo sapiens, UniProt Q00537); test: Radiometric protein kinase assay (33PanQinase), CDK17_p35NCK; settings: slope of the IC50 fit
CDK18_CycY = CDK18_CycY (Homo sapiens, UniProt Q07002); test: Radiometric protein kinase assay (33PanQinase), CDK18_CycY
CDK19_CycC = target: T8, CDK19_CycC (Homo sapiens, UniProt Q9BWU1); test: Radiometric protein kinase assay (33PanQinase), CDK19_CycC
T8 construct: purchased Reaction Biology

CDK2_CycA2 = target: T9, CDK2_CycA2 (Homo sapiens, UniProt P24941); test: Radiometric protein kinase assay (33PanQinase), CDK2_CycA2
T9 construct: purchased Reaction Biology

CDK2_CycD1 = target: T10, CDK2_CycD1 (Homo sapiens, UniProt P24941); test: Radiometric protein kinase assay (33PanQinase), CDK2_CycD1; settings: slope of the IC50 fit
T10 construct: purchased Reaction Biology

CDK2_CycE1 = target: T11, CDK2_CycE1 (Homo sapiens, UniProt P24941); test: Radiometric protein kinase assay (33PanQinase), CDK2_CycE1
T11 construct: purchased Reaction Biology

CDK20_CycH = CDK20_CycH (Homo sapiens, UniProt Q8IZL9); test: Radiometric protein kinase assay (33PanQinase), CDK20_CycH
CDK20_CycT1 = CDK20_CycT1 (Homo sapiens, UniProt Q8IZL9); test: Radiometric protein kinase assay (33PanQinase), CDK20_CycT1
CDK3_CycC = target: T12, CDK3_CycC (Homo sapiens, UniProt Q00526); test: Radiometric protein kinase assay (33PanQinase), CDK3_CycC
T12 construct: purchased Reaction Biology

CDK3_CycE1 = target: T13, CDK3_CycE1 (Homo sapiens, UniProt Q00526); test: Radiometric protein kinase assay (33PanQinase), CDK3_CycE1; settings: slope of the IC50 fit
T13 construct: purchased Reaction Biology

CDK4_CycD1 = target: T14, CDK4_CycD1 (Homo sapiens, UniProt P11802); test: Radiometric protein kinase assay (33PanQinase), CDK4_CycD1; settings: slope of the IC50 fit
T14 construct: purchased Reaction Biology

CDK4_CycD2 = target: T15, CDK4_CycD2 (Homo sapiens, UniProt P11802); test: Radiometric protein kinase assay (33PanQinase), CDK4_CycD2; settings: slope of the IC50 fit
T15 construct: purchased Reaction Biology

CDK4_CycD3 = target: T16, CDK4_CycD3 (Homo sapiens, UniProt P11802); test: Radiometric protein kinase assay (33PanQinase), CDK4_CycD3; settings: slope of the IC50 fit
T16 construct: purchased Reaction Biology

CDK5_p25NCK = target: T17, CDK5_p25NCK (Homo sapiens, UniProt Q00535); test: Radiometric protein kinase assay (33PanQinase), CDK5_p25NCK
T17 construct: purchased Reaction Biology

CDK5_p35NCK = target: T18, CDK5_p35NCK (Homo sapiens, UniProt Q00535); test: Radiometric protein kinase assay (33PanQinase), CDK5_p35NCK
T18 construct: purchased Reaction Biology

CDK6_CycD1 = target: T19, CDK6_CycD1 (Homo sapiens, UniProt Q00534); test: Radiometric protein kinase assay (33PanQinase), CDK6_CycD1; settings: slope of the IC50 fit
T19 construct: purchased Reaction Biology

CDK6_CycD2 = target: T20, CDK6_CycD2 (Homo sapiens, UniProt Q00534); test: Radiometric protein kinase assay (33PanQinase), CDK6_CycD2; settings: slope of the IC50 fit
T20 construct: purchased Reaction Biology

CDK6_CycD3 = target: T21, CDK6_CycD3 (Homo sapiens, UniProt Q00534); test: Radiometric protein kinase assay (33PanQinase), CDK6_CycD3; settings: slope of the IC50 fit
T21 construct: purchased Reaction Biology

CDK7_CycH_MAT1 = target: T22, CDK7_CycH_MAT1 (Homo sapiens, UniProt P50613); test: Radiometric protein kinase assay (33PanQinase), CDK7_CycH_MAT1; settings: slope of the IC50 fit
T22 construct: purchased Reaction Biology

CDK8_CycC = target: T23, CDK8_CycC (Homo sapiens, UniProt P49336); test: Radiometric protein kinase assay (33PanQinase), CDK8_CycC
T23 construct: purchased Reaction Biology

CDK9_CycK = target: T24, CDK9_CycK (Homo sapiens, UniProt P50750); test: Radiometric protein kinase assay (33PanQinase), CDK9_CycK
T24 construct: purchased Reaction Biology

CDK9_CycT1 = target: T25, CDK9_CycT1 (Homo sapiens, UniProt P50750); test: Radiometric protein kinase assay (33PanQinase), CDK9_CycT1
T25 construct: purchased Reaction Biology

[1] = highest assay concentration 1.00E-05 M, read-out: IC50
[2] = highest assay concentration 1.00E-05 M

Chain of CDK20_CycH (Q8IZL9 whole entry): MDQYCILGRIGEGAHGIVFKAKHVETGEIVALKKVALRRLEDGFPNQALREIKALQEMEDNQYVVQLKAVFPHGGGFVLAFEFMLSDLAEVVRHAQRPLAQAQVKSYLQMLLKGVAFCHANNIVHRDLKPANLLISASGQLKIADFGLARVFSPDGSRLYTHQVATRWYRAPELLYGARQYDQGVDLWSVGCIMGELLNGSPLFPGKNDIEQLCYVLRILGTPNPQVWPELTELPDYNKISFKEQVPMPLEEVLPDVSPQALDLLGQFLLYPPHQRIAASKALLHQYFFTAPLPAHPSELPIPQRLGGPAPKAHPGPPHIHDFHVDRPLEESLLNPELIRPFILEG
Chain of CDK20_CycT1 (Q8IZL9 whole entry): as above
T25 sequence (P50750 whole entry): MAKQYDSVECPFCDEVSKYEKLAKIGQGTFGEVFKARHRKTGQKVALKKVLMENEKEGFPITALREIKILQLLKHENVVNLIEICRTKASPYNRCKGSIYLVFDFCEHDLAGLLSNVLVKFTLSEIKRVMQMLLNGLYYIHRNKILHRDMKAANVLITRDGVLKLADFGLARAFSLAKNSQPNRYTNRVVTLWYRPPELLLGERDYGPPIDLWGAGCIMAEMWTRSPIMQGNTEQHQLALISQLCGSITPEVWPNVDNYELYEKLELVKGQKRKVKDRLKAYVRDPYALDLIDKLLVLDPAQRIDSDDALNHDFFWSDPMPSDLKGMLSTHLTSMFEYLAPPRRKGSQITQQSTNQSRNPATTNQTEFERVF
T25 sequence (O60563 whole entry partner): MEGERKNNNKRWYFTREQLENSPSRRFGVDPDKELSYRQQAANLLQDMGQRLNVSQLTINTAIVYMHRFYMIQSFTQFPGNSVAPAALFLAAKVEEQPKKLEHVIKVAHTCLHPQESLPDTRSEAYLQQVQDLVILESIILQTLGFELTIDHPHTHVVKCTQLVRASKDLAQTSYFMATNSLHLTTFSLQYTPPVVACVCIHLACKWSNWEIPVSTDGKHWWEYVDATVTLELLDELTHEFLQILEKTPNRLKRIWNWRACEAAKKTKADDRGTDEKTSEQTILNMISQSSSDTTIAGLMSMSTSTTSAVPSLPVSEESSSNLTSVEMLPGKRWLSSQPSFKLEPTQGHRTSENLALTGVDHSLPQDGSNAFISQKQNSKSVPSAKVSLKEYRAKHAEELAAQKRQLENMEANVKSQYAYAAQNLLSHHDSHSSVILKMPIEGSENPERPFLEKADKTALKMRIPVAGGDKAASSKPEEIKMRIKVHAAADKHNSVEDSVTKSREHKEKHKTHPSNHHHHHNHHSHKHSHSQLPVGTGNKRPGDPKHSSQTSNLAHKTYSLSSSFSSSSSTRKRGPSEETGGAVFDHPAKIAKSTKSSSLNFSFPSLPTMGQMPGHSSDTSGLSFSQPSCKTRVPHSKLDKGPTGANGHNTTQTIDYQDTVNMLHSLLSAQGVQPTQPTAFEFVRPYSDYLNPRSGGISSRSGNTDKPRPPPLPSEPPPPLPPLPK
T24 sequence (P50750 whole entry): as the sequence (P50750 whole entry) above
T24 sequence (O75909 whole entry partner): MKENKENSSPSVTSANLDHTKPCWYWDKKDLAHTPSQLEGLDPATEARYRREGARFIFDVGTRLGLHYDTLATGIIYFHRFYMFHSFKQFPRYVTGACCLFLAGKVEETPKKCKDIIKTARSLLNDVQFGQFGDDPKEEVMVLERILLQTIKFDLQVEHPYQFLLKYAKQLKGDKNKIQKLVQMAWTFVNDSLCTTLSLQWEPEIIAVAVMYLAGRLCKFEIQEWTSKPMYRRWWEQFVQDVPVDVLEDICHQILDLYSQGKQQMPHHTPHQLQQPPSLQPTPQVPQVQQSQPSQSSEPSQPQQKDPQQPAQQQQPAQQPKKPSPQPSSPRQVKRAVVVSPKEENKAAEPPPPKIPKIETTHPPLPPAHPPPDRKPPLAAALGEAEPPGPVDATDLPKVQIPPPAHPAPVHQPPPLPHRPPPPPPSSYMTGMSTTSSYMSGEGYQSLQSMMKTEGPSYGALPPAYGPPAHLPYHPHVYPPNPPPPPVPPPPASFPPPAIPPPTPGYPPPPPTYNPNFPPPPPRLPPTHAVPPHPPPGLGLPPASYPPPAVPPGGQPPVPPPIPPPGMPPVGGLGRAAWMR
T23 sequence (P49336 whole entry): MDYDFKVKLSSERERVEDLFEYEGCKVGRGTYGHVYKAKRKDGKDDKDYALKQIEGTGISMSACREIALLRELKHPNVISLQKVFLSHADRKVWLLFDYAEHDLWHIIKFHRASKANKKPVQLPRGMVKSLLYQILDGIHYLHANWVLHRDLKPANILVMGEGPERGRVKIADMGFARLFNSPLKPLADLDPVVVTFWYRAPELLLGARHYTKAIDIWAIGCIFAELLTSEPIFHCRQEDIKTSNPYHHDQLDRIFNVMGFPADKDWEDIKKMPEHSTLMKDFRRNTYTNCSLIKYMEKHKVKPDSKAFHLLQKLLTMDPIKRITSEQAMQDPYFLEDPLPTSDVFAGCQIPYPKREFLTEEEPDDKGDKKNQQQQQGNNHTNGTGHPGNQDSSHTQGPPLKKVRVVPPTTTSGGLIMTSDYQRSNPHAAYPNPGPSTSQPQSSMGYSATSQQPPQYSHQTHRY
T23 sequence (P24863 whole entry partner): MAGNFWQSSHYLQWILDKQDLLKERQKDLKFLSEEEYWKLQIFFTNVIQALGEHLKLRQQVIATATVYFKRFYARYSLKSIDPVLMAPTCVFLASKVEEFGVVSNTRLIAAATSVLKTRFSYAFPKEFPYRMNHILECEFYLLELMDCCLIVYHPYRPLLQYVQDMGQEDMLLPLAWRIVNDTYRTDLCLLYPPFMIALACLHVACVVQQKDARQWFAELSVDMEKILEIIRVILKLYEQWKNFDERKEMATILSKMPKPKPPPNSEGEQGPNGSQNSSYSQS
T12 sequence (Q00526 whole entry): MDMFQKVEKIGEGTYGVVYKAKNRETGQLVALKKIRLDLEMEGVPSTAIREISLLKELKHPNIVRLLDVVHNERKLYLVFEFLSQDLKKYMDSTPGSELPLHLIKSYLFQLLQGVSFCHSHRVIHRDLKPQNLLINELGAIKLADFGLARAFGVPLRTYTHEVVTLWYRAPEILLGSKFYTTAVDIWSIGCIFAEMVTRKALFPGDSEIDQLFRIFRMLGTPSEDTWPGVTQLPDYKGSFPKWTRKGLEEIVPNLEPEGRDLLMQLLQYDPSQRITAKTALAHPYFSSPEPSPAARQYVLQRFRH
T12 sequence (P24863 whole entry partner): as the sequence (P24863 whole entry partner) above
Chain of CDK18_CycY (Q07002 whole entry): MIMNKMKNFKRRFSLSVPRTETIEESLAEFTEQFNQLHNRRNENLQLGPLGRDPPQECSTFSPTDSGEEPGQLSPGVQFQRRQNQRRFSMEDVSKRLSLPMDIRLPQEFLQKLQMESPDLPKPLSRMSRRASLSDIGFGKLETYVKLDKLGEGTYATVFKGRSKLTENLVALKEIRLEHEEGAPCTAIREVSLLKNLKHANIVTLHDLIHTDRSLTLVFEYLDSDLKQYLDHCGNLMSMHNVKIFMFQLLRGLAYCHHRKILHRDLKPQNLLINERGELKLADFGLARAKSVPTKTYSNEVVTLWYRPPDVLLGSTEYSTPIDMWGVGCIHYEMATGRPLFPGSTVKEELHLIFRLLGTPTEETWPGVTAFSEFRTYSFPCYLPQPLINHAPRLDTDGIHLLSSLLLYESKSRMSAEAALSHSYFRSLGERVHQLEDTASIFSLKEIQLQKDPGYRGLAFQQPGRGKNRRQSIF
Chain of CDK18_CycY (Q8ND76 whole entry partner): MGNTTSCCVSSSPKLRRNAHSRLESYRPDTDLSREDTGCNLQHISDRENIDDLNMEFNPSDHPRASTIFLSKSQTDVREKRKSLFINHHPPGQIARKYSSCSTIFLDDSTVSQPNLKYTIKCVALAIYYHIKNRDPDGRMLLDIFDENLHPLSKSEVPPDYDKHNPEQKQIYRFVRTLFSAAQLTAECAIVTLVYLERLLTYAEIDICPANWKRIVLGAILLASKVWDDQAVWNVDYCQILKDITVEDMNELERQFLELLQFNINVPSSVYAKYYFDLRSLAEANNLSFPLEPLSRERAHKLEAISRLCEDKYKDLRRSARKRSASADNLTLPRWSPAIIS
T6 sequence (Q96Q40 whole entry): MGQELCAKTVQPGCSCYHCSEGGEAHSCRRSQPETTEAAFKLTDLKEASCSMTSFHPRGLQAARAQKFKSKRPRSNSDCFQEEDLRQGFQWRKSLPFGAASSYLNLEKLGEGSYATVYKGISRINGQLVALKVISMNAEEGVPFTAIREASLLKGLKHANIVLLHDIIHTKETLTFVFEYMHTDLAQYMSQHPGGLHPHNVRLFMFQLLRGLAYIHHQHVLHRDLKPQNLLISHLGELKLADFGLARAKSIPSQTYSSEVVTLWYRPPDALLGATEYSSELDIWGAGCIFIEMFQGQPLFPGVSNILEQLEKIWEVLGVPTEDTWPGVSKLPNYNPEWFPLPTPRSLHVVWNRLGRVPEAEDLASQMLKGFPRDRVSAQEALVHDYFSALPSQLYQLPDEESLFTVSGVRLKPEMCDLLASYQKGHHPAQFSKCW
Chain of CDK11B 357-795_CycK (P21127 357-795): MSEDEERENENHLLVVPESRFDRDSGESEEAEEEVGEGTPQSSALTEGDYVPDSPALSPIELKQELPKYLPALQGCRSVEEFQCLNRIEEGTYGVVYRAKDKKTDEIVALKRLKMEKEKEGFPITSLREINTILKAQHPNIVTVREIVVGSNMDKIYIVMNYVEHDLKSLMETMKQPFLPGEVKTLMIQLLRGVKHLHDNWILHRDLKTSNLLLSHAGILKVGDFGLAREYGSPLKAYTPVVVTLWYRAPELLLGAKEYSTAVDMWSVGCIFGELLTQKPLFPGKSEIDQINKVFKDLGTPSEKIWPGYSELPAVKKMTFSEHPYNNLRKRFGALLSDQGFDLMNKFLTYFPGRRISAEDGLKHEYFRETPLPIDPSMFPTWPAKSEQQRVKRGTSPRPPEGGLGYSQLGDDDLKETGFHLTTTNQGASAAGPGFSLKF

Cc1c(Br)c(Br)c2c3c1nc(N1CCNCC1)n3CCC2.Cl [SEL120-34A, reference compound]
IC50 (CDK1_CycA2; [1]): 7.1 µM
Hill Slope (CDK1_CycA2; slope of the IC50 fit): -0.95
IC50 (CDK1_CycB1; [2]): 7.62 µM
Hill Slope (CDK1_CycB1; slope of the IC50 fit): -0.55
IC50 (CDK1_CycE1; [1]): 5 µM
Hill Slope (CDK1_CycE1; slope of the IC50 fit): -1.01
Hill Slope (CDK10_CycQ): -0.83
Hill Slope (CDK11B 357-795_CycK): -0.45
IC50 (CDK12_CycK; [2]): 0.702 µM
Hill Slope (CDK12_CycK; slope of the IC50 fit): -0.91
IC50 (CDK13_CycK; [1]): 0.292 µM
Hill Slope (CDK13_CycK; slope of the IC50 fit): -0.51
Hill Slope (CDK14_CycY): -0.83
IC50 (CDK15_CycA2; [2]): 7.49 µM
Hill Slope (CDK15_CycA2; slope of the IC50 fit): -0.86
Hill Slope (CDK16_CycY): -0.52
Hill Slope (CDK17_p35NCK): -0.56
IC50 (CDK18_CycY; [2]): 7.84 µM
Hill Slope (CDK18_CycY; slope of the IC50 fit): -0.81
IC50 (CDK19_CycC; [1]): 0.437 µM
Hill Slope (CDK19_CycC; slope of the IC50 fit): -0.83
IC50 (CDK2_CycA2; [1]): 2.22 µM
Hill Slope (CDK2_CycA2; slope of the IC50 fit): -1.14
Hill Slope (CDK2_CycD1): -0.7
IC50 (CDK2_CycE1; [1]): 2.7 µM
Hill Slope (CDK2_CycE1; slope of the IC50 fit): -1.13
IC50 (CDK20_CycH; [2]): 1.13 µM
Hill Slope (CDK20_CycH; slope of the IC50 fit): -0.52
IC50 (CDK20_CycT1; [2]): 1.12 µM
Hill Slope (CDK20_CycT1; slope of the IC50 fit): -0.7
IC50 (CDK3_CycC; [1]): 4.82 µM
Hill Slope (CDK3_CycC; slope of the IC50 fit): -0.87
Hill Slope (CDK3_CycE1): -0.48
Hill Slope (CDK4_CycD1): -0.69
Hill Slope (CDK4_CycD2): -0.75
Hill Slope (CDK4_CycD3): -0.78
IC50 (CDK5_p25NCK; [2]): 7.39 µM
Hill Slope (CDK5_p25NCK; slope of the IC50 fit): -0.75
IC50 (CDK5_p35NCK; [2]): 4.55 µM
Hill Slope (CDK5_p35NCK; slope of the IC50 fit): -0.92
Hill Slope (CDK6_CycD1): -0.06
Hill Slope (CDK6_CycD2): -0.78
Hill Slope (CDK6_CycD3): -0.38
Hill Slope (CDK7_CycH_MAT1): -0.9
IC50 (CDK8_CycC; [1]): 0.193 µM
Hill Slope (CDK8_CycC; slope of the IC50 fit): -0.81
IC50 (CDK9_CycK; [2]): 0.597 µM
Hill Slope (CDK9_CycK; slope of the IC50 fit): -1.14
IC50 (CDK9_CycT1; [2]): 0.957 µM
Hill Slope (CDK9_CycT1; slope of the IC50 fit): -1.23
